US20210401826A1, “ABUSE DETERRENT PHARMACEUTICAL FORMULATIONS” (AVEKSHAN, LLC., priority 2018, published 2021)
Where “and” joins values, the source holds several entries; their conditions need not be identical. Equal values may be shown once. Where a name gives a salt, the structure may show the parent alone. Read-outs that look alike come from different tables or passages of the source.

How the values were obtained:
[1] = Solubility study of naltrexone and methylphenidate in common solvents and household items (visual examination); type: physicochemical
Experimental: The solubility of naltrexone and methylphenidate was evaluated in various commonly available solvents and household items, including water, cola soft drinks, ethanol, vinegar, nail polish remover, toluene, turpentine, and baking soda solution (see Table 1). The solubility results were determined by visual examination of each solution after warming and several hours of mixing. The solubility results are presented below in Table 1.

[2] = Separation of naltrexone and methylphenidate from a 1:1 mixture using acetone; type: physicochemical; conditions: for mg NTX / MPH Recovered / % NTX / MPH Recovered / NTX / MPH: Prep. A and B
Experimental: In this example, equal amounts of methylphenidate and naltrexone (20 mg each) were combined and then separated. To separate the methylphenidate from the naltrexone, only materials representing commonly available household items were used, e.g., acetone (nail polish remover), water, small glass containers, a hot plate and a coffee filter. Three sources of acetone were used, all of which are available to the public, including lab grade acetone, nail polish remover, and acetone heavy-duty cleaner.
Conditions for the separation, such as acetone volume and extraction time, were tested and adjusted.

[3] = 0.2% baking soda solution, aqueous buffer, thermodynamic from solid, read-out: Solubility
[4] = 25:75 acetone:water, aqueous with cosolvent or surfactant or cyclodextrin, thermodynamic from solid, 25:75 Acetone:H2O, read-out: Solubility
[5] = 40% ethanol, aqueous with cosolvent or surfactant or cyclodextrin, thermodynamic from solid, read-out: Solubility
[6] = 50:50 acetone:water, aqueous with cosolvent or surfactant or cyclodextrin, thermodynamic from solid, 50:50 Acetone:H2O, read-out: Solubility
[7] = Coca-Cola, aqueous buffer, thermodynamic from solid, read-out: Solubility
[8] = DMF, organic solvent or mixture, thermodynamic from solid, read-out: Solubility
[9] = DMSO, organic solvent or mixture, thermodynamic from solid, read-out: Solubility
[10] = acetone, organic solvent or mixture, thermodynamic from solid, read-out: Solubility
[11] = acetonitrile, organic solvent or mixture, thermodynamic from solid, read-out: Solubility
[12] = aqueous buffer, thermodynamic from solid, 0.1M Sodium Hydroxide, read-out: Solubility
[13] = canola oil, oil or lipid, thermodynamic from solid, read-out: Solubility
[14] = ethanol, organic solvent or mixture, thermodynamic from solid, read-out: Solubility
[15] = ethyl acetate, organic solvent or mixture, thermodynamic from solid, read-out: Solubility
[16] = hexanes, organic solvent or mixture, thermodynamic from solid, read-out: Solubility
[17] = isopropyl alcohol, organic solvent or mixture, thermodynamic from solid, read-out: Solubility
[18] = methanol, organic solvent or mixture, thermodynamic from solid, read-out: Solubility
[19] = methyl ethyl ketone, organic solvent or mixture, thermodynamic from solid, read-out: Solubility
[20] = mineral spirits, organic solvent or mixture, thermodynamic from solid, read-out: Solubility
[21] = naphtha, organic solvent or mixture, thermodynamic from solid, read-out: Solubility
[22] = simulated gastric fluid, thermodynamic from solid, 0.1M Hydrochloric Acid, read-out: Solubility
[23] = toluene, organic solvent or mixture, thermodynamic from solid, read-out: Solubility
[24] = turpentine, organic solvent or mixture, thermodynamic from solid, read-out: Solubility
[25] = vinegar, aqueous buffer, thermodynamic from solid, read-out: Solubility
[26] = water, thermodynamic from solid, read-out: Solubility
[27] = xylene, organic solvent or mixture, thermodynamic from solid, read-out: Solubility
[28] = Acetone Cleaner 20 mL, listed as MPH, HCl
[29] = Lab Grade Acetone 20 mL, listed as MPH, HCl
[30] = Lab Grade Acetone 50 mL, listed as MPH, HCl
[31] = Nail Polish Remover 20 mL, listed as MPH, HCl
[32] = Nail Polish Remover 50 mL, listed as MPH, HCl
[33] = Acetone Cleaner 20 mL, listed as NTX, HCl
[34] = Acetone Cleaner 50 mL, listed as NTX, HCl
[35] = Lab Grade Acetone 20 mL, listed as NTX, HCl
[36] = Nail Polish Remover 20 mL, listed as NTX, HCl
[37] = Nail Polish Remover 50 mL, listed as NTX, HCl

SMILES: COC(=O)C(c1ccccc1)C1CCCCN1 (stereo not drawn) [Methylphenidate HCl]
- solubility [1, 3]: > 1000 µg/mL
- solubility [1, 4]: > 1000 µg/mL
- solubility [1, 5]: > 1000 µg/mL
- solubility [1, 6]: > 1000 µg/mL
- solubility ([1]; Acetone, HCl): >1000 µg/mL
- solubility [1, 7]: > 1000 µg/mL
- solubility [1, 8]: > 1000 µg/mL
- solubility [1, 9]: > 1000 µg/mL
- solubility [1, 10]: > 1000 µg/mL
- solubility [1, 11]: > 1000 µg/mL
- solubility [1, 12]: > 1000 µg/mL
- solubility [1, 13]: < 100 µg/mL
- solubility [1, 14]: > 1000 µg/mL
- solubility [1, 15]: 100 to 500 µg/mL
- solubility [1, 16]: 100 to 500 µg/mL
- solubility [1, 17]: > 1000 µg/mL
- solubility [1, 18]: > 1000 µg/mL
- solubility [1, 19]: 500 to 1000 µg/mL
- solubility [1, 20]: < 100 µg/mL
- solubility [1, 21]: < 100 µg/mL
- solubility [1, 22]: > 1000 µg/mL
- solubility [1, 23]: < 100 µg/mL
- solubility [1, 24]: < 100 µg/mL
- solubility [1, 25]: > 1000 µg/mL
- solubility [1, 26]: > 1000 µg/mL
- solubility [1, 27]: < 100 µg/mL
- mg NTX / MPH Recovered ([2]; Acetone Cleaner 20 mL): 15.9 mg
- % NTX / MPH Recovered [2, 28]: 79.5% and 79.7%
- NTX / MPH [2, 28]: 0.79 mg/mL and 0.80 mg/mL
- NTX / MPH ([2]; Acetone Cleaner 50 mL): 0.92 mg/mL
- mg NTX / MPH Recovered ([2]; Acetone Cleaner 50 mL): 18.4 mg
- % NTX / MPH Recovered ([2]; Acetone Cleaner 50 mL, listed as MPH, HCl): 92.0% and 91.8%
- % NTX / MPH Recovered [2, 29]: 76.4% and 73.7%
- NTX / MPH [2, 29]: 0.76 mg/mL and 0.74 mg/mL
- mg NTX / MPH Recovered [2, 29]: 15.3 mg and 14.7 mg
- % NTX / MPH Recovered [2, 30]: 91.5% and 92.4%
- NTX / MPH [2, 30]: 0.91 mg/mL and 0.92 mg/mL
- mg NTX / MPH Recovered [2, 30]: 18.3 mg and 18.5 mg
- mg NTX / MPH Recovered ([2]; Nail Polish Remover 20 mL): 14.6 mg
- % NTX / MPH Recovered [2, 31]: 73.0% and 79.4%
- NTX / MPH [2, 31]: 0.73 mg/mL and 0.79 mg/mL
- mg NTX / MPH Recovered [2, 31]: 15.9 mg
- NTX / MPH ([2]; Nail Polish Remover 50 mL, 20 mg each drug combined, listed as MPH, HCl): 0.91 mg/mL and 0.90 mg/mL
- % NTX / MPH Recovered [2, 32]: 91.4% and 90.1%
- mg NTX / MPH Recovered [2, 32]: 18.3 mg and 18.0 mg
- % of methylphenidate extracted ([2]; depending on the volume of acetone used): 73-92%

SMILES: O=C1CC[C@@]2(O)[C@H]3Cc4ccc(O)c5c4[C@@]2(CCN3CC2CC2)[C@H]1O5 [Naltrexone HCl]
- solubility [1, 3]: > 1000 µg/mL
- solubility [1, 4]: > 1000 µg/mL
- solubility [1, 5]: > 1000 µg/mL
- solubility [1, 6]: > 1000 µg/mL
- solubility ([1]; Acetone, HCl): <100 µg/mL
- solubility [1, 7]: > 1000 µg/mL
- solubility [1, 8]: > 1000 µg/mL
- solubility [1, 9]: > 1000 µg/mL
- solubility [1, 10]: < 100 µg/mL
- solubility [1, 11]: 100 to 500 µg/mL
- solubility [1, 12]: > 1000 µg/mL
- solubility [1, 13]: < 100 µg/mL
- solubility [1, 14]: > 1000 µg/mL
- solubility [1, 15]: < 100 µg/mL
- solubility [1, 16]: < 100 µg/mL
- solubility [1, 17]: < 100 µg/mL
- solubility [1, 18]: > 1000 µg/mL
- solubility [1, 19]: < 100 µg/mL
- solubility [1, 20]: < 100 µg/mL
- solubility [1, 21]: < 100 µg/mL
- solubility [1, 22]: > 1000 µg/mL
- solubility [1, 23]: < 100 µg/mL
- solubility [1, 24]: < 100 µg/mL
- solubility [1, 25]: > 1000 µg/mL
- solubility [1, 26]: > 1000 µg/mL
- solubility [1, 27]: < 100 µg/mL
- % NTX / MPH Recovered [2, 33]: 5.1% and 8.5%
- NTX / MPH [2, 33]: 0.05 mg/mL and 0.09 mg/mL
- mg NTX / MPH Recovered [2, 33]: 1.02 mg and 1.7 mg
- NTX / MPH ([2]; Acetone Cleaner 50 mL): 0.13 mg/mL
- % NTX / MPH Recovered [2, 34]: 13.4% and 12.5%
- mg NTX / MPH Recovered [2, 34]: 2.68 mg and 2.5 mg
- % NTX / MPH Recovered [2, 35]: 5.2% and 6.5%
- NTX / MPH [2, 35]: 0.05 mg/mL and 0.06 mg/mL
- mg NTX / MPH Recovered [2, 35]: 1.04 mg and 1.3 mg
- % NTX / MPH Recovered [2, 36]: 5.6% and 8.6%
- NTX / MPH [2, 36]: 0.06 mg/mL and 0.09 mg/mL
- mg NTX / MPH Recovered [2, 36]: 1.12 mg and 1.72 mg
- NTX / MPH ([2]; Nail Polish Remover 50 mL, 20 mg each drug combined, listed as NTX, HCl): 0.14 mg/mL and 0.15 mg/mL
- % NTX / MPH Recovered [2, 37]: 13.8% and 15.4%
- mg NTX / MPH Recovered [2, 37]: 2.76 mg and 3.08 mg
